ChEMBL document CHEMBL3243967, “Potential antitumor agents. 25. Azalogues of the 4'-(9-acridinylamino) methanesulfonanilides” (J Med Chem, 1977)

Columns and labels:
[1] = Toxicity in ip dosed mouse allografted with mouse L1210 cells administered qd from day 1 to 5 of challenge; type: organism-based; details: in vivo
[2] = Ionization constant, pKa of the compound in 20% DMF-buffer mixture by UV spectrophotometry; type: physicochemical
[3] = Lipophilic-hydrophilic balance, Rm of the compound by reversed-phase partition chromatography; type: physicochemical
[4] = system: L1210; assay: Antitumor activity against mouse L1210 cells allografted in ip dosed mouse assessed as dose required for maximum increase in life span administered qd from day 1 to 5 of challenge; type: functional
[5] = system: L1210; assay: Antitumor activity against mouse L1210 cells allografted in ip dosed mouse assessed as increase in life span at optimal dose administered qd from day 1 to 5 of challenge relative to control; type: functional
[6] = Ionization constant, pKa of the compound at pH 7.4; type: physicochemical

For `CS(=O)(=O)Nc1ccc(Nc2c3ccccc3nc3cnccc23)cc1`, the MTD [1] was > 500 mg/kg, the pKa [2] was 5.32 and the Rm [3] was -0.33.

In the case of `CS(=O)(=O)Nc1ccc(Nc2c3ccccc3nc3ccc([N+](=O)[O-])cc23)cc1`, the Activity [4] is reported as 250 mg/kg, the “Increase in life span” value [5] is reported as 27% and the pKa [2] is reported as 5.42. It also gave a Rm [3] of -0.21.

In the case of `COc1cc(Nc2c3ccccc3nc3c([N+](=O)[O-])cccc23)ccc1NS(C)(=O)=O`, the Activity [4] is reported as 75 mg/kg, the “Increase in life span” value [5] is reported as 38% and the pKa [2] is reported as 5.05. For the same compound, the Rm [3] was 0.09.

For `COc1cc(Nc2c3ccccc3nc3ccc([N+](=O)[O-])cc23)ccc1NS(C)(=O)=O`, the MTD [1] was > 500 mg/kg, the pKa [2] was 5.63 and the Rm [3] was -0.06.

With `CS(=O)(=O)Nc1ccc(Nc2c3ccc([N+](=O)[O-])cc3nc3cc([N+](=O)[O-])ccc23)cc1` the pKa [6] was 3.68.

In the case of `COc1cc(Nc2c3ccccc3nc3ncccc23)ccc1NS(C)(=O)=O`, the Activity [4] is reported as 62 mg/kg, the “Increase in life span” value [5] is reported as 89% and the pKa [2] is reported as 6.09. The Rm [3] was -0.07.

With `CS(=O)(=O)Nc1ccc(Nc2c3ccccc3nc3ncccc23)cc1` the MTD [1] was > 500 mg/kg, the pKa [2] was 5.93 and the Rm [3] was -0.27.

In the case of `CS(=O)(=O)Nc1ccc(Nc2c3ccccc3nc3ccncc23)cc1`, the MTD [1] is reported as > 500 mg/kg, the pKa [2] is reported as 5.73 and the Rm [3] is reported as -0.39.

With `CS(=O)(=O)Nc1ccc(Nc2c3ccccc3nc3cc(N)ccc23)cc1` the Activity [4] was 2.5 mg/kg, the “Increase in life span” value [5] was 81% and the pKa [2] was 9.8. For the same compound, the Rm [3] was -0.17.

For `COc1cc(Nc2c3ccccc3nc3cccnc23)ccc1NS(C)(=O)=O`, the MTD [1] was 220 mg/kg, the pKa [2] was 7.19 and the Rm [3] was -0.39.

In the case of `COc1cc(Nc2c3ccccc3nc3cccc([N+](=O)[O-])c23)ccc1NS(C)(=O)=O`, the Activity [4] is reported as 180 mg/kg, the “Increase in life span” value [5] is reported as 44% and the pKa [2] is reported as 4.98. It also gave a Rm [3] of -0.01.

For `COc1cc(Nc2c3ccccc3nc3cc([N+](=O)[O-])ccc23)ccc1NS(C)(=O)=O`, the Activity [4] was 4.5 mg/kg, the “Increase in life span” value [5] was 84% and the pKa [2] was 5.72. It also gave a Rm [3] of 0.11.

In the case of `CS(=O)(=O)Nc1ccc(Nc2c3ccccc3nc3c([N+](=O)[O-])cccc23)cc1`, the MTD [1] is reported as > 500 mg/kg, the pKa [2] is reported as 4.88 and the Rm [3] is reported as -0.17.

With `CS(=O)(=O)Nc1ccc(Nc2c3ccccc3nc3cccnc23)cc1` the MTD [1] was > 500 mg/kg, the pKa [2] was 6.9 and the Rm [3] was -0.56.

In the case of `CS(=O)(=O)Nc1ccc(Nc2c3ccccc3nc3cc([N+](=O)[O-])ccc23)cc1`, the Activity [4] is reported as 25 mg/kg, the “Increase in life span” value [5] is reported as 123% and the pKa [2] is reported as 5.52. For the same compound, the Rm [3] was -0.17.

In the case of `COc1cc(Nc2c3ccccc3nc3cnccc23)ccc1NS(C)(=O)=O`, the Activity [4] is reported as 90 mg/kg, the “Increase in life span” value [5] is reported as 88% and the pKa [2] is reported as 5.53. It also gave a Rm [3] of -0.13.

For `CS(=O)(=O)Nc1ccc(Nc2c3ccccc3nc3ccccc23)cc1`, the Activity [4] was 45 mg/kg, the “Increase in life span” value [5] was 107% and the Rm [3] was 0.

For `CS(=O)(=O)Nc1ccc(Nc2c3ccccc3nc3cccc([N+](=O)[O-])c23)cc1`, the MTD [1] was 75 mg/kg, the pKa [2] was 4.79 and the Rm [3] was -0.09.

`COc1cc(Nc2c3ccccc3nc3ccncc23)ccc1NS(C)(=O)=O` gave an MTD [1] of 500 mg/kg, a pKa [2] of 5.84 and a Rm [3] of -0.25.

For `CS(=O)(=O)Nc1ccc(Nc2c3ccccc3nc3ccc(N)cc23)cc1`, the Activity [4] was 25 mg/kg, the “Increase in life span” value [5] was 78% and the pKa [2] was 7.15. The Rm [3] was -0.31.
